In patent publication US20230406883A1, “COMPOUNDS AND THEIR USE IN TREATMENT OF TACHYKININ RECEPTOR MEDIATED DISORDERS” (Embark Biotech ApS, priority 2020, published 2023):
Numbered stars: 1 amine (or outer) side, 2 acyl side, 3 side chain; on linkers, the order of the positions; unused ones are H or OH. Square brackets hold non-standard residues; d marks the D form. Peptide text beside a SMILES is read from it. * marks the point of attachment. C18 diacid = O=C(O)CCCCCCCCCCCCCCCCC(=O)*; γGlu = O=C(O)[C@H](CCC(=O)[*:2])N[*:1]; NMeL = CN[C@@H](CC(C)C)C(=O)O; hSer = N[C@@H](CCO)C(=O)O; Nle = CCCC[C@H](N)C(=O)O; AEEA = NCCOCCOCC(=O)O

Tests used:
hNK2R = target: T1, hNK2R (Homo sapiens, UniProt P21452); assay: Indirect human serum albumin binding by IP3 assay, 0.2% ovalbumin vs 1% HSA; format: cell-based; conditions: for hNK2R, Albumin binding Efficacy (%)-ovalbumin: 0.2% ovalbumin; for hNK2R, Albumin binding Efficacy (%)-1% human serum albumin / EC50: 1% HSA; for EC50: read-out: hNK2R, Albumin binding EC50 (nM)-1% human serum albumin
T1 construct: host or cells: COS-7
T1 sequence (P21452 1-398): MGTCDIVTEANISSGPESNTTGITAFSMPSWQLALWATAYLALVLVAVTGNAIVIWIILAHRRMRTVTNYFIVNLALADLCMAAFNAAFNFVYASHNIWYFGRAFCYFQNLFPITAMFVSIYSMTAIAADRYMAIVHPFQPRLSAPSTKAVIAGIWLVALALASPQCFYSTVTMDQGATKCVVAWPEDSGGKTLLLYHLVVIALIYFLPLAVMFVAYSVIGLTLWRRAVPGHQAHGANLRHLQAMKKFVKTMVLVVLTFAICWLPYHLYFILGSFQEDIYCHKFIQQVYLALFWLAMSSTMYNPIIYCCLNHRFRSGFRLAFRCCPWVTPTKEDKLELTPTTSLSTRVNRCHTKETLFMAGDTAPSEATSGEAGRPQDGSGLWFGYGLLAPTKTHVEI
Procedure: Agonist-induced G-protein coupled receptor (GPCR) activation was measured by an Inositol-1,4,5-Trisphosphate [^3H] Radioreceptor Assay (IPs Assay). Assays were carried out using COS-7 cells transiently transfected by calcium phosphate transfection with a vector pcDNA3.1(+) encoding one of the indicated receptors (Genscript). Briefly, DNA mixed with CaCl2 (2 M) and TE-buffer (10 mM Tris-HCl, 1 mM EDTA, pH 7.5) was dropwise added to 2×HBS (50 mM HEPES, 280 mM NaCl, 1.5 mM NaH2PO4, pH 7.2) and incubated for 45 min at room temperature (22±2° C.). The mixture and a final concentration of 100 μM Chloroquine were added to the cells and left to incubate for 5 hours at 37° C. under standard cell culture conditions (10% CO2) before changing medium to fresh medium containing 5 μl/mL Myo-[2-^3H(N)]-inositol (labeling medium).
The indirect HSA binding IP3 assay takes advantage of the tachykinin receptors' ability to induce production of the inositol trisphosphate (IP3) second messenger upon agonist (ligand) binding on receptor expressing cells following an initial ^3H-inositol labeling period. The assay relies on the assumption that high peptide HSA binding will result in low receptor-mediated production of the second messenger IP3. Thus, the assay is an indirect assessment HSA binding.
Assay solutions used: Wash buffer (HBSS), Assay buffer 0.2% OvAlb (HBSS+10 mM LiCl and 0,2% w/v ovalbumin) or Assay buffer 1% HSA (HBSS+10 mM LiCl and 1% w/v HSA), Lysis buffer (10 mM formic acid), and SPA YSI beads (12.5 mg/ml in H2O). The assay was performed the day after transfection. Briefly, labelling medium was aspirated, and plates were washed ×1 in wash buffer before adding 100 μl assay buffer 0.2% OvAlb or assay buffer 1% HSA, pre-incubated for 30 min followed by 120 min incubation with agonist, both at 37° C. After incubation, plates were immediately placed on ice and the incubation medium was aspirated and 40 μl of 10 mM formic acid per well was added. Plates were incubated for at least 30 min on ice. 60 μl (1 mg/well) SPA YSI beads/well was pipetted into a solid white 96 wells plate and 35 μl of the lysis solution was transferred to the plate before covering plates with seal cover and shaking for 10 min. (max speed). Centrifuge plates and leave for 8 hours at room temperature before counting the plates in a MicroBeta plate counter (Perkin Elmer).

[1] = Energy expenditure screening by indirect calorimetry in diet-induced obese mice; format: in vivo; conditions: DIO mice, 0.5 mg/kg s.c., increase over vehicle
Procedure: Indirect calorimetry was used to evaluate the ability of individual peptide analogues to dose-dependently increase energy expenditure (EE) we used metabolic cages and indirect calorimetry measured by the Promethion system. To this end, oxygen consumption was used as a surrogate measure for EE. Substrate preference (fat or carbohydrate) was evaluated using the respiratory exchange ratio (RER). In parallel, behavioral information such as walking distance and water and food intake were recorded.
Prior to experimentation, DIO mice were transferred to habituation cages for at least 10 days (5 days outside and at least 5 days in the Sable Systems gas analyzer module) to acclimatize. For all in vivo compound tests for EE evaluation, mice received subcutaneous injections between 2 and 4 pm.
Energy expenditure screening: After habituation, mice were subcutaneously injected with 0.5 mg/kg peptide analogue in a volume of 2 ml/kg. Mice were injected q.a.d. (quaque altera die) and received a total of two injections. EE was evaluated and increase over vehicle was calculated as percent of mean oxygen consumption over a 30-hour period after injection. Prior to injection peptide analogues were dissolved to 0.25 mg/ml in in vivo buffer.

[2] = Intraperitoneal glucose tolerance test (ipGTT) in DIO mice; format: in vivo; conditions: 325 nmol/kg s.c. once, test 24 hours after treatment
Procedure: Glucose tolerance test: The effect on glucose tolerance was determined using intraperitoneal glucose tolerance test (ipGTT) 24 hours after single subcutaneous injection of NK2R-selective analogue in DIO mice. At day of experimentation, mice were fasted four hours prior to receiving 1 g/kg glucose diluted in saline solution ([…]) by intraperitoneal injection. Change in glucose was monitored using glucometer.

[3] = Intraperitoneal insulin tolerance test (ipITT) in DIO mice; format: in vivo; conditions: 325 nmol/kg s.c. once, test 24 hours after treatment
Procedure: Insulin tolerance test: The effect on insulin tolerance was determined using intraperitoneal insulin tolerance test (ipITT) 24 hours after single subcutaneous injection of NK2R-selective analogue in DIO mice. At day of experimentation, mice were fasted two hours prior to receiving 1.5 U/kg insulin diluted in saline solution (0.2 mL/kg) by intraperitoneal injection. Change in glucose was monitored using glucometer.

[4] = Loperamide-induced dysfunctional voiding test; format: in vivo; conditions: lean wild-type mice, Loperamide 5 mg/kg, compound 130, 260, 325 nmol/kg s.c.
Procedure: Dysfunctional voiding test: To investigate the effect on dysfunctional voiding, constipation was induced in lean wild-type, male and female, mice using Loperamide (5 mg/kg). 30 minutes after gavage, mice were subcutaneously dosed with either vehicle, 130, 260 and for males also 325 nmol/kg of EB344. 6 hours post Loperamide gavage, mice were removed from the cage and number of feces pellets were counted.

Compound	hNK2R, Albumin binding Efficacy (%)-ovalbumin (hNK2R) [%]	hNK2R, Albumin binding Efficacy (%)-1% human serum albumin (hNK2R)	EC50 (hNK2R) [nM]	Energy expenditure (percent of vehicle; based on 30 h average vO2) [1]	Glucose tolerance (ipGTT) [2]	Insulin tolerance (ipITT) [3]	Loperamide-induced dysfunctional voiding (number of feces pellets during six hours) [4]
CCCC[C@H](NC(=O)[C@H](CC(C)C)N(C)C(=O)CNC(=O)[C@@H](NC(=O)[C@H](Cc1ccc(O)cc1)NC(=O)[C@H](CCCCN)NC(=O)[C@H](CC(=O)O)NC(=O)COCCOCCNC(=O)COCCOCCNC(=O)CC[C@H](NC(=O)CCCCCCCCCCCCCCCCC(=O)O)C(=O)O)C(C)C)C(N)=O [compound 305, *Asp;Lys;Tyr;Val;Gly;NmLeu;Nle;NH2] ({C18 diacid-γGlu-AEEA-AEEA}-DKYVG[NMeL][Nle]-NH2)	83	45-51%	260	9% of vehicle			
COCC[C@H](NC(=O)[C@H](CC(C)C)N(C)C(=O)CNC(=O)[C@@H](NC(=O)[C@H](Cc1ccc(O)cc1)NC(=O)[C@H](CCCCN)NC(=O)[C@H](CC(=O)O)NC(=O)COCCOCCNC(=O)COCCOCCNC(=O)CC[C@H](NC(=O)CCCCCCCCCCCCCCCCC(=O)O)C(=O)O)C(C)C)C(N)=O [compound 344, *Asp;Lys;Tyr;Val;Gly;NmLeu;Metox;NH2] ({C18 diacid-γGlu-AEEA-AEEA}-DKYVG[NMeL][hSer](Me)-NH2)	95	60%	260		improved both glucose and insulin tolerance	improved both glucose and insulin tolerance	improved Loperamide-induced dysfunctional voiding in a dose-dependent manner
